Source: patent publication US8338431B2, “Phosphodiesterase inhibitors” (Leo Pharma A/S, priority 2007, dated 2012)

Columns and labels:
[1] = tested on: TNF-α release from human peripheral blood mononuclear cells (PBMC); test: TNF-α Release in LPS stimulated PBMC; type: cell-based; conditions: 30 minutes pre-incubation, stimulated 18 hours with lipopolysaccharide, TNF-α in supernatant by enzyme immunoassay
Method: Human peripheral blood mononuclear cells (PBMC) were isolated from buffy coats. The blood is mixed with saline at a ratio of 1:1, and the PBMC were isolated using Lymphoprep Tubes™ (Nycomed, Norway). The PBMC were suspended in RPMI1640 with 2% foetal calf serum (FCS), pen/strep and 2 mM L-glutamine at a concentration of […]. The cells were pre-incubated for 30 minutes with the test compounds in 96 well tissue culture plates and stimulated for 18 hours with lipopolysaccharide […] (Sigma). The level of TNF-α was measured in the culture supernatant by enzyme immunoassays using primary and secondary biotinylated antibodies from R&D systems. Results are expressed as IC50 values calculated from inhibition curves using as positive controls the secretion in LPS stimulated wells and as negative controls the secretion in unstimulated cells.

[2] = target: Human recombinant PDE4 (Genbank accession no NM—006203) (Homo sapiens, UniProt Q08499); test: PDE4 Assay (SPA, cleavage of cAMP); type: biochemical; conditions: human recombinant PDE4, 1 hour incubation, cAMP 1×10^-5M, test compound up to 10 μM; read-out: IC50 (PDE4)
Method: Human recombinant PDE4 (Genbank accession no NM_006203) was incubated for 1 hour, with the test compound at concentrations up to 10 μM, with cAMP (1×10^-5M), and with a low amount (0.021 MBq) of radioactively labelled cAMP. At the end of the incubation, the cleavage of the substrate was evaluated by the binding of the AMP product to SPA beads, which generate […] when bound to the radioactive tracer. The AMP product inhibited the binding of the radioactive tracer to the beads, and the luminescent signal was competed. The results were calculated as the molar concentrations resulting in 50% inhibition of the substrate cleavage compared to controls samples, and are expressed as IC50 (M).

Sequence of Human recombinant PDE4 (Genbank accession no NM—006203) (Q08499 1-673 isoform Q08499-2): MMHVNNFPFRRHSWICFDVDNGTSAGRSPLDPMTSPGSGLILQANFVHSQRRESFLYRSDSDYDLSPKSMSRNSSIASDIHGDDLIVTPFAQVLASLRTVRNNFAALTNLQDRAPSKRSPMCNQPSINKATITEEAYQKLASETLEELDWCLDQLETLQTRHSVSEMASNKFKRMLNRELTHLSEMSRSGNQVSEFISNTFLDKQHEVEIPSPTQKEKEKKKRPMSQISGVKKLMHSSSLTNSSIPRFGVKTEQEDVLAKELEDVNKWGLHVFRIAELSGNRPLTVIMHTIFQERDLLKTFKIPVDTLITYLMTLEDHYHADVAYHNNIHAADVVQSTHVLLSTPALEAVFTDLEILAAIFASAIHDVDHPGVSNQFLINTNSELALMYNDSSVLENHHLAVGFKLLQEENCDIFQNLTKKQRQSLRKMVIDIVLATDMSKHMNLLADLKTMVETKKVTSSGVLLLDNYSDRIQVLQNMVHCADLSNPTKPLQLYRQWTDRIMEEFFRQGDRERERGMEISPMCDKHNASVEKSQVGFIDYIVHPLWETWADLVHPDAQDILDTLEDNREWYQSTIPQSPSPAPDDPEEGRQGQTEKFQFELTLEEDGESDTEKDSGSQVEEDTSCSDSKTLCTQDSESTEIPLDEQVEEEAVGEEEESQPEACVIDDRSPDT

| IC50 [2] [µM] | SMILES | IC50 [1] [µM] |
| --- | --- | --- |
| 0.043 | COc1ccc(C(=O)Cc2c(Cl)c[n+]([O-])cc2Cl)c2c1OCC1(COCOC1)CO2 [Compound 131, 2-(3,5-Dichloro-1-oxido-pyridine-4-yl)-1-{9-methoxy-spiro[2H-1,5-benzodioxepin-3(4H),5′-[1,3]dioxane]-6-yl}ethanone] | 0.016 |
| 0.026 | COc1ccc(C(=O)Cc2c(Cl)cncc2Cl)c2c1OCC1(CO2)CSCSC1 [Compound 132, 2-(3,5-Dichloropyridin-4-yl)-1-{9-methoxy-spiro[2H-1,5-benzodioxepin-3(4H),5′-[1,3]dithiane]-6-yl}ethanone] | 0.029 |
